Like-named read-outs stand apart in the source and are kept apart here.
What was measured:
HepG2 cells = assay: MTT assay, antiproliferative activity, HepG2 liver carcinoma cells; type: cell-based; conditions: Homo sapiens, read-out: HepG2 IC50
Method: (§1) The anticancer activity of the OSe was performed using the MTT assay against liver (HepG2) and breast (MCF-7) carcinoma cells, as well as normal WI-38 cells following the reported method. Experimental details can be found in the Supplementary Materials Section S1.
(§2) Accordingly, the anticancer properties of the OSe hybrids were assessed against two cancer cell lines, i.e., HepG2 and MCF-7 cells. Furthermore, their corresponding cytotoxicity was also estimated against the immortalized lung WI-38 fibroblasts employing the MTT assay. The Adriamycin cancer drug was used as the positive control. The concentration inhibition, 50%, needed to kill half of the cells (IC50) was estimated from (concentration-response plots) and tabulated in Table 1.
(§3) 1.1. The biological assays
(§4) 1.1.1. The anticancer activity
(§5) The breast adenocarcinoma (MCF-7), Hepatocellular carcinoma (HEPG-2), and normal fibroblast (WI-38) cells were obtained from ATCC via Holding company for biological products and vaccines (VACSERA), Cairo, Egypt. The reagents […] medium, MTT, DMSO, and fetal bovine serum was obtained from Sigma Aldrich. Dulbecco’s modified Eagle’s medium was used as the culture medium for the cells, and the cytotoxicity was evaluated using the reported MTT assay. Doxorubicin was used as the positive reference, and the IC50 values were obtained from the corresponding dose-response curve.
(§6) This colorimetric assay is based on converting the yellow tetrazolium bromide (MTT) to a purple formazan derivative by mitochondrial succinate dehydrogenase in viable cells. Cell lines were cultured in […] medium with 10% fetal bovine serum. Antibiotics added were 100 units/ml penicillin and 100µg/ml streptomycin at 37 C in a 5% Co2 incubator. The cell lines were seeded in a 96-well plate at a density of 1.0x10^4 cells/well. at 37 C for 48 h under 5% […]
Finally, dimethyl sulfoxide (DMSO) in the volume of 100 µl is added to each well to dissolve the purple formazan formed. The colorimetric assay is measured and recorded at an absorbance of 570 nm using a plate reader (EXL 800, USA). […]

Staphylococcus aureus [1] = assay: Agar well diffusion assay, S. aureus; type: cell-based; conditions: ratio of inhibition zone to that of positive control
Method: (§7) According to the reported method, the OSe agents’ antimicrobial properties were estimated against Staphylococcus aureus (S. aureus), Escherichia coli (E. coli), and Candida albicans (C. albicans) microbial strains using the agar well diffusion assay. In addition, the MICs (in […]) were also recorded via the microdilution method following the reported procedure. Experimental details can be found in the Supplementary Materials Section S1 [16, 18].
(§8) The promising anticancer activities manifested by the OSe compounds encourage us to further evaluate their respective antimicrobial activity against a panel of gram-negative bacteria (e.g., E. coli) and the gram-positive bacteria (e.g., S. aureus) as well as a fungal strain (C. albicans) using the method of agar diffusion. The clotrimazole antifungal and the ampicillin antibacterial drugs were used as the positive controls. […]
(§9) 1.1.2. The antimicrobial activity
(§10) The antimicrobial activities of the OSe compounds were evaluated against C. albicans yeast as well as E. coli gram-negative and S. aureus gram-positive bacteria employing the agar well diffusion assay [ 4 ] .
(§11) Briefly, a concentration of 1 mM was prepared for each compound by dissolving in DMSO.
(§12) Paper discs of standard size […] were sterilized in an autoclave and soaked in 9 µL of the test compounds, and placed in the Petri dishes, which in turn contain a nutrient media (agar 9 g, peptone 5 g, and beef extract 3 g) seeded with the dedicated strain. Incubation lasted for 13 h at 36 0C. Experiments were replicated three times and the antifungal clotrimazole and antibiotic ampicillin were used as standards. The % activity index for the complex was determined and depicted in table 2. […]

Candida albicans [2] = assay: Agar well diffusion assay, C. albicans; type: cell-based; conditions: read-out: C. Albicans ZID
Staphylococcus aureus [3] = assay: Agar well diffusion assay, S. aureus; type: cell-based; conditions: read-out: S. aureus ZID
WI-38 cells = assay: MTT assay, cytotoxicity against normal WI-38 fibroblasts; type: cell-based; conditions: Homo sapiens, WI-38, 24 h, read-out: WI38 IC50
Method: as §1
as §2, with “control.” for “control. The concentration inhibition, 50%, needed to kill half of the cells (IC50) was estimated from (concentration-response plots) and tabulated in Table 1.”
as §3, §4, §5, §6
(§13) Finally, dimethyl sulfoxide (DMSO) in the volume of 100 µl is added to each well to dissolve the purple formazan formed. […]

Candida albicans [4] = assay: Agar well diffusion assay, C. albicans; type: cell-based; conditions: ratio of inhibition zone to that of positive control
Method: as §7, §8, §9, §10, §11, §12

MCF-7 cells = assay: MTT assay, antiproliferative activity, MCF-7 breast carcinoma cells; type: cell-based; conditions: Homo sapiens, MCF7, 24 h, read-out: MCF7 IC50
Method: as §1
as §2, with “control.” for “control. The concentration inhibition, 50%, needed to kill half of the cells (IC50) was estimated from (concentration-response plots) and tabulated in Table 1.”
as §3, §4, §5, §6, §13

Escherichia coli [5] = assay: Agar well diffusion assay, E. coli; type: cell-based; conditions: read-out: E. coli ZID
Escherichia coli [6] = assay: Agar well diffusion assay, E. coli; type: cell-based; conditions: ratio of inhibition zone to that of positive control
Method: as §7, §8, §9, §10, §11, §12

[7] = DPPH radical scavenging bioassay; conditions: for DPPH radical scavenging activity: 200 µL, 1 mM in MeOH, DPPH 400 µL, 30 min, 517 nm
Text: (§14) The DPPH and ABTS in vitro bioassays were used to assess the OSe antioxidant activities following the reported method. Experimental details can be found in the Supplementary Materials Section S1.
(§15) The redox modulation activities of the OSe compounds were extensively explored over the last decade owing to their chemopreventive and antioxidant potency. The latter is usually investigated by the ABTS and DPPH in vitro tests employing vitamin C as the positive control. The OSe compound’s magnitude estimated the antioxidant potential to decolorize the distinctive colors of the DPPH^. and ABTS^. radicals at 517 nm and 734 nm, respectively (Figure 2).
(§16) Figure 2 The OSe compounds redox activities assessment using the ABTS and DPPH experiments. All tests are mean ± SD. ABTS experiment: absorbance was followed at 734 nm for OSe compounds (50 µL, 1 mM in MeOH) and ABTS solution (60 µL). DPPH experiment: Absorbance was monitored after 30 min at 517 nm for OSe compounds (200 µL, 1 mM in MeOH) and DPPH (400 µL). […]
1.1.3. The antioxidant activity
1.1.3.1. The DPPH bioassay
The hydrogen atom or electron donation ability of the corresponding compounds was measured by estimating the bleaching of the purple color of a methanolic solution of DPPH [5]. This spectrophotometric assay uses stable DPPH. reagent. The sample was prepared by adding […] of the OSe compounds (1 mM in methanol) to […] DPPH in methanol. After 30 min of incubation in the dark, the absorbance was read against a blank at […]. Ascorbic acid (vitamin C) and ebselen were used as standard antioxidants (positive control). A blank sample was run without DPPH. A negative control sample was run using methanol instead of the sample. The radical scavenging activity was […]
using the following equation:
Inhibition%= (Ablank-Asample)/(Ablank)*100. […]

[8] = ABTS radical scavenging bioassay; conditions: dose needed to decrease the absorbance by 50%
Text: as §14, §15, §16
1.1.3.2. The ABTS bioassay
The antioxidant activity of the investigated compounds was assessed using 2,2’-azino-bis(3-ethylbenzothiazoline-6-sulphonic acid (ABTS) method. The radical cation derived from ABTS was prepared by the reaction of 60 mM ABTS solution with 0.3 M manganese dioxide solution in 0.1M phosphate buffer, pH 7. Then, the mixture was shaken, centrifuged, filtered, and the absorbance (Acontrol) of the resulting green-blue solution (ABTS radical solution) was measured at wavelength 734 nm. Then, […] of 1 mg/ml test compound in phosphate-buffered methanol was added. The absorbance (Atest) was measured. The reduction in color intensity was expressed as % inhibition. The % inhibition for each compound is calculated from the following equation
Inhibition% = (Acontrol-Asample)/(Acontrol)*100
Ascorbic acid (vitamin C) was used as a standard antioxidant (positive control). A blank sample was run without ABTS and using MeOH/phosphate buffer (1:1) instead of the sample. A negative control sample was run with MeOH/phosphate buffer (1:1) instead of a tested compound.

Row | SMILES | IC50 (HepG2 cells; MTT, HepG2 cells, 24 h incubation) [µM] | melting point [°C] | S. aureus IA% (activity index) (Staphylococcus aureus [1]) [%] | IC50 (HepG2 cells; HepG2, 24 h) [µM] | zone of inhibition at 20 µM (Candida albicans [2]) [mm] | zone of inhibition at 20 µM (Staphylococcus aureus [3]) [mm] | IC50 (WI-38 cells) [µM] | C. Albicans IA% (activity index) (Candida albicans [4]) [%] | IC50 (MCF-7 cells) [µM] | zone of inhibition at 20 µM (Escherichia coli [5]) [mm] | E. coli IA% (activity index) (Escherichia coli [6]) [%] | DPPH radical scavenging activity [7] [%] | IC50 [8] [µM] | IC50 ([7]; dose needed to decrease the absorbance by 50%) [µM]
1 | COc1cccc2c1C(=O)c1c(O)c3c(c(O)c1C2=O)C[C@@](O)(C(=O)CO)C[C@@H]3O[C@H]1C[C@H](N)[C@H](O)[C@H](C)O1 [Adriamycin, reference compound] | 4.5 ± 0.2 | – | – | – | – | – | – | – | – | – | – | – | – | –
2 | COC(=O)c1cc([Se][Se]c2ccc(NC=O)c(C(=O)OC)c2)ccc1NC=O [Compound 7, dimethyl 5,5′-diselanediylbis(2-formamidobenzoate)] | – | 195 to 196 | 14.3 | 83.7 ± 4.4 | 4 | 3 | 45.7 ± 2.7 | 16.7 | 79 ± 4.2 | – | – | – | – | –
3 | COC(=O)c1cc([Se][Se]c2ccc(NC(C)=O)c(C(=O)OC)c2)ccc1NC(C)=O [Compound 8, dimethyl 5,5′-diselanediylbis(2-acetamidobenzoate)] | – | 186 to 187 | – | > 100 | – | – | > 100 | – | > 100 | – | – | – | – | –
4 | COC(=O)c1cc([Se][Se]c2ccc(NC(=O)CCl)c(C(=O)OC)c2)ccc1NC(=O)CCl [Compound 9, dimethyl 5,5′-diselanediylbis(2-(2-chloroacetamido) benzoate)] | – | 150 to 152 | – | > 100 | – | – | > 100 | – | > 100 | – | – | – | – | –
5 | COC(=O)c1cc([Se][Se]c2ccc(NC(=O)COc3ccccc3)c(C(=O)OC)c2)ccc1NC(=O)COc1ccccc1 [Compound 10, dimethyl 5,5′-diselanediylbis(2-(2-phenoxyacetamido) benzoate)] | – | 152 to 154 | 38.1 | 81.5 ± 4.2 | 5 | 8 | 38.2 ± 2.5 | 20.8 | 53.5 ± 3 | 5 | 21.7 | – | – | –
6 | COC(=O)c1cc([Se][Se]c2ccc(NC(=O)CCC(=O)O)c(C(=O)OC)c2)ccc1NC(=O)CCC(=O)O [Compound 11] | – | 150 to 152 | 33.3 | 43.7 ± 2.6 | 10 | 7 | > 100 | 41.7 | 55.1 ± 3.2 | 5 | 21.7 | – | – | –
7 | COC(=O)c1cc([Se][Se]c2ccc(N3C(=O)CCC3=O)c(C(=O)OC)c2)ccc1N1C(=O)CCC1=O [Compound 12, dimethyl 5,5′-diselanediylbis(2-(2,5-dioxopyrrolidin-1-yl) benzoate] | – | 100 | – | > 100 | – | – | > 100 | – | > 100 | – | – | – | – | –
8 | COC(=O)c1cc([Se][Se]c2ccc(NC(=O)/C=C\C(=O)O)c(C(=O)OC)c2)ccc1NC(=O)/C=C\C(=O)O [Compound 13, (2Z,2’Z)-4,4′-((diselanediylbis(2-(methoxycarbonyl)-4,1-phenylene))bis(azanediyl)) bis (4-oxobut-2-enoic acid)] | – | 149.5 to 151 | 19.0 | 78.5 ± 3.9 | 5 | 4 | 47 ± 2.8 | 20.8 | 76.2 ± 4 | – | – | – | – | –
9 | COC(=O)c1cc([Se]Cc2ccccc2)ccc1N [Compound 15, methyl 2-amino-5-(benzylselanyl) benzoate] | – | 78 | 85.7 | 6.48 ± 0.4 | 22 | 18 | 25.8 ± 1.8 | 91.7 | 12.8 ± 0.9 | 17 | 73.9 | 89 | – | –
10 | COC(=O)c1cc([Se]CC(=O)Nc2ccccc2)ccc1N [Compound 16, methyl 2-amino-5-((2-oxo-2-(phenylamino)ethyl)selanyl) benzoate] | – | 126 to 128.5 | 42.8 | 30.6 ± 2.4 | 13 | 9 | 71.9 ± 4.1 | 54.2 | 50.8 ± 2.9 | 6 | 26.1 | – | – | –
11 | O=C1O[C@H]([C@@H](O)CO)C(O)=C1O [Vitamin C, Ascorbic acid, reference compound] | – | – | – | – | – | – | – | – | – | – | – | 95 | 28.16 ± 0.19 | 19.18 ± 0.13

Reference: paper PMC9775310, “Anticancer, Antimicrobial, and Antioxidant Activities of Organodiselenide-Tethered Methyl Anthranilates” (Biomolecules, 2022)
